Results published in patent US9056832B2, “Pyridine compounds and the users thereof” (Purdue Pharma L.P., priority 2010, dated 2015).
Where two headings read alike, the source gives them in different places.

Target: human Nav1.7 (Homo sapiens (Human), UniProt Q15858)
Assay: FLIPR or FLIPR TETRA sodium dye assay with KCl and test article pre-incubation
Format: cell-based
Settings: read-out: Nav1.7 IC50 (μM) ± SEM
[1] = recombinant human Nav1.7 in HEK293 cells, CoroNa Green sodium dye, veratridine + scorpion venom

Chain of human Nav1.7 (Q15858 other isoform, or with tags, fused parts or gaps): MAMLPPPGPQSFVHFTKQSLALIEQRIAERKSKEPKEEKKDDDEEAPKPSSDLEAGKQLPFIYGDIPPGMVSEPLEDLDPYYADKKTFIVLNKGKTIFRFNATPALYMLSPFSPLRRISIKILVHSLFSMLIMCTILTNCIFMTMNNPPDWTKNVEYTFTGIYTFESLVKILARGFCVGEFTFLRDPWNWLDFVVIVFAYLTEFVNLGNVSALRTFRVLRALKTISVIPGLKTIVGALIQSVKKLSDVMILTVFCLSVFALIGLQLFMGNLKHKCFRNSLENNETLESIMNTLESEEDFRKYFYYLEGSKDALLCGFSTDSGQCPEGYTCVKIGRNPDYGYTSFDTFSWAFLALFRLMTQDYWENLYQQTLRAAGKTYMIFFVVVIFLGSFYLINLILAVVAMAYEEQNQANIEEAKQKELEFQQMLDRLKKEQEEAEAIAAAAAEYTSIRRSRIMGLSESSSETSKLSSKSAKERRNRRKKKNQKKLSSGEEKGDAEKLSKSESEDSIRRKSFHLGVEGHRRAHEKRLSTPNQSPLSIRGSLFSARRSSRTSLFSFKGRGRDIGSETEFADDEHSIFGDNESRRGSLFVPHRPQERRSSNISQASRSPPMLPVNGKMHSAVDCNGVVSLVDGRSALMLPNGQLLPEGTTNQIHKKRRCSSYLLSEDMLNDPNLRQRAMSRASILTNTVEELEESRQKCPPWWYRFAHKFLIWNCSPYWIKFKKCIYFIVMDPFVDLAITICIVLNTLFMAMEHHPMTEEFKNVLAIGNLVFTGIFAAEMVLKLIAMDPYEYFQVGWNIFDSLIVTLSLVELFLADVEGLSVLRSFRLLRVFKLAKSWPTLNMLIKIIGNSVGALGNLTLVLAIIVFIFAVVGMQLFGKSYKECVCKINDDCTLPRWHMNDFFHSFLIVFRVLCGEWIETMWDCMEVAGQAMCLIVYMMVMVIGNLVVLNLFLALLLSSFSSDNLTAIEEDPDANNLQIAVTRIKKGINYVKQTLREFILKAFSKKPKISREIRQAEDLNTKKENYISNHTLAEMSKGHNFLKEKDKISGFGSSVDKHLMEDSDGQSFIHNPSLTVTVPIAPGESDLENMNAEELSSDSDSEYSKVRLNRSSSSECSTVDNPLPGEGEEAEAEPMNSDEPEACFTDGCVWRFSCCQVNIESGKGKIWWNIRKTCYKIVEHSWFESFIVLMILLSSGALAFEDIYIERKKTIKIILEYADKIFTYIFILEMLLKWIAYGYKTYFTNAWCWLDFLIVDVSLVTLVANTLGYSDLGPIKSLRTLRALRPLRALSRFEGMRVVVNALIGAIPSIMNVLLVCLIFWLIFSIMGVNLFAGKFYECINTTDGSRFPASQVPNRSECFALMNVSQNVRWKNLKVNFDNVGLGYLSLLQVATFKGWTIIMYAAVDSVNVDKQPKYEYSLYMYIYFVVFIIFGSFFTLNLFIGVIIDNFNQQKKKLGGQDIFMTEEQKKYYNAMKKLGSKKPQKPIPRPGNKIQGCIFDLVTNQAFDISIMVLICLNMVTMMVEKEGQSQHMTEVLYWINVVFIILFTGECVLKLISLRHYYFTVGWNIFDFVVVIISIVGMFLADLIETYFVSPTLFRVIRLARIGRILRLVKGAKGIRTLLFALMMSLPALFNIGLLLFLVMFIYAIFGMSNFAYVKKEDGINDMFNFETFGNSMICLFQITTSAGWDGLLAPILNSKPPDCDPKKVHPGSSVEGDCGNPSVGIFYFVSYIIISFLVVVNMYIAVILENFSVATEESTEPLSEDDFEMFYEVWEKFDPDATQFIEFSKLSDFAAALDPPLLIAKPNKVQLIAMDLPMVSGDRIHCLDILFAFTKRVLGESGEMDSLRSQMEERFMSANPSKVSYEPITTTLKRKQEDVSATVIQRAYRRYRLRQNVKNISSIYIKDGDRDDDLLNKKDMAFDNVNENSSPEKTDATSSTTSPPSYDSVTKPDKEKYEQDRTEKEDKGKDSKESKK

Row | Structure (SMILES) | IC50 | IC50 [1]
1 | N#Cc1ccc(Oc2ccc(-c3cccc([C@H](O)CO)n3)cc2)c(C(F)(F)F)c1 [compound 22, (S)-4-(4-(6-(1,2-dihydroxyethyl)pyridin-2-yl)phenoxy)-3-(trifluoromethyl) benzonitrile] | 3.33 ± 0.2 µM | 
2 | NC(=O)c1cc(NC(=O)Nc2ccccc2)cc(-c2ccc(Oc3ccc(F)cc3)cc2)n1 [compound 84, 6-(4-(4-fluorophenoxy)phenyl)-4-(3-phenylureido) picolinamide] |  | 4.11 ± 0.93 µM
3 | CC(C)NC(=O)N1CCN(c2cc(C#N)nc(-c3ccc(Oc4ccc(F)cc4)cc3)c2)CC1 [compound 82, 4-(2-cyano-6-(4-(4-fluorophenoxy)phenyl)pyridin-4-yl)-N-isopropylpiperazine-1-carboxamide] |  | 1.94 ± 0.21 µM
4 | NC(=O)c1cc(NC(CO)CO)cc(-c2ccc(Oc3ccc(F)cc3)cc2)n1 [compound 133, 4-((1,3-dihydroxypropan-2-yl)amino)-6-(4-(4-fluorophenoxy)phenyl) picolinamide] |  | 3.08 ± 0.59 µM
5 | N#Cc1ccc(Oc2ccc(-c3cccc([C@H](O)CO)n3)cc2)cc1 [compound 6, (S)-4-(4-(6-(1,2-dihydroxyethyl)pyridin-2-yl)phenoxy)benzonitrile] | 0.27 ± 0.05 µM | 
6 | O=S(=O)(Nc1ccc(F)cc1)c1ccc(-c2cccc([C@H](O)CO)n2)cc1 [compound 124, (S)-4-(6-(1,2-dihydroxyethyl)pyridin-2-yl)-N-(4-fluorophenyl) benzenesulfonamide] | 2.5 ± 0.34 µM | 
7 | N#Cc1cc([C@H](O)CO)cc(-c2ccc(Oc3ccc(F)cc3)cc2)n1 [compound 112, (S)-4-(1,2-dihydroxyethyl)-6-(4-(4-fluorophenoxy)phenyl)picolinonitrile] |  | 2.12 ± 0.54 µM
8 | NC(=O)c1cc(-c2ccc(Oc3ccc(F)cc3)cc2)cc(N(CC(=O)O)c2ccccc2)n1 [compound 143, ({6-Carbamoyl-4-[4-(4-fluoro-phenoxy)-phenyl]-pyridin-2-yl}phenyl-amino)-acetic acid] |  | > 20 µM
9 | N#Cc1ccc(Oc2ccc(-c3cc([C@@H](O)CO)cc(C(N)=O)n3)cc2)c(C(F)(F)F)c1 [compound 36, (R)-6-(4-(4-cyano-2-(trifluoromethyl)phenoxy)phenyl)-4-(1,2-dihydroxyethyl) picolinamide] | 0.22 ± 0.04 µM | 
10 | NC(=O)c1cc([C@H](O)CO)cc(-c2ccc(-c3ccc(F)cc3)cc2)n1 [compound 154, 4-((S)-1,2-Dihydroxy-ethyl)-6-(4′-fluoro-biphenyl-4-yl)pyridine-2-carboxylic acid amide] |  | 1.12 ± 0.07 µM
11 | NC(=O)c1cc(NCCN2CCNC2=O)cc(-c2ccc(Oc3ccc(F)cc3)cc2)n1 [compound 58, 6-(4-(4-fluorophenoxy)phenyl)-4-((2-(2-oxoimidazolidin-1-yl)ethyl)amino) picolinamide] | 1.57 ± 0.33 µM | 
12 | N#CCCN(c1ccccc1)c1cc(C(=O)O)nc(-c2ccc(Oc3ccc(F)cc3)cc2)c1 [compound 118, 4-((2-cyanoethyl) (phenyl)amino)-6-(4-(4fluorophenoxy)phenyl)picolinic acid] | 2.5 ± 0.3 µM | 
13 | N#Cc1ccc(Oc2ccc(-c3cccc(C(O)CO)n3)cc2)cc1 (stereo not shown) [compound 8, 4-(4-(6-(1,2-dihydroxyethyl)pyridin-2-yl)phenoxy) benzonitrile] | 0.47 ± 0.09 µM | 
14 | CN(c1ccc(C(=O)O)cc1)c1cc(-c2ccc(Oc3ccc(F)cc3)cc2)cc(C(=O)O)n1 [compound 120, 6-((4-carboxyphenyl) (methy)amino)-4-(4-(4-fluorophenoxy)phenyl) picolinic acid] | 9.3 ± 0.54 µM | 
15 | N#Cc1ccc(Oc2ccc(-c3cc([C@H](O)CO)cc(C(N)=O)n3)cc2)c(C(F)(F)F)c1 [compound 35, (S)-6-(4-(4-cyano-2-(trifluoromethyl)phenoxy)phenyl)-4-(1,2-dihydroxyethyl) picolinamide] | 0.4 ± 0.07 µM | 
16 | NC(=O)c1cc(NCCN2CCOCC2)cc(-c2ccc(Oc3ccc(F)cc3)cc2)n1 [compound 53, 6-(4-(4-fluorophenoxy)phenyl)-4-((2-morpholinoethyl)amino) picolinamide] |  | 0.22 ± 0.06 µM
